Assay [1] concerns the target Mitogen-activated protein kinase kinase kinase kinase 5 (Homo sapiens) (UniProt Q9Y4K4). Kind of assay: Selectivity interaction (Kinase panel (KiNativ target engagement assay in Jurkat cells)) EUB0001635a MAP4K5. Format: cell-based. To be noted: Selectivity number of off-targets 0.0, Selectivity number of targets 233.0, Source Knowledge https://www.sciencedirect.com/science/article/pii/S2451945619300674?via%3Dihub, at 1 µM.

The target in assay [2] is T1, Dual specificity mitogen-activated protein kinase kinase 6 (Homo sapiens) (UniProt P52564).
T1 sequence (whole entry): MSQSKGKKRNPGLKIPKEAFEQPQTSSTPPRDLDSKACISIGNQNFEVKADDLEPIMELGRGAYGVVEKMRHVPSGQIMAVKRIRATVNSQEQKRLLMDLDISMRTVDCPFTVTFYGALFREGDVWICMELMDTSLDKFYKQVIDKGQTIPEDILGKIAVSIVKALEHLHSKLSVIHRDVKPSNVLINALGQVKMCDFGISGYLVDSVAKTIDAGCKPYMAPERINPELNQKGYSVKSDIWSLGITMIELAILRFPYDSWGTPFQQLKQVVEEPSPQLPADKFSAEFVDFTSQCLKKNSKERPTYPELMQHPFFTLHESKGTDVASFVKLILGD
The assay is described as follows: Selectivity interaction (SelectScreen profiling (Invitrogen)) EUB0000607a MAP2K6. The note with it: at 2 µM.

For assay [3], the target named is Receptor-type tyrosine-protein kinase FLT3 (Homo sapiens) (UniProt P36888). To be noted: at 10 µM.
For assay [4], the target named is Interferon-induced, double-stranded RNA-activated protein kinase (Homo sapiens) (UniProt P19525). The assay is described as follows: Selectivity interaction (KinomeScan (DiscoverX)) EUB0001079a EIF2AK2. To be noted: at 1 µM.
Assay [5] concerns the target Cyclin-dependent kinase-like 3 (Homo sapiens) (UniProt Q8IVW4). The assay is described as follows: Selectivity interaction (KinomeScan (DiscoverX)) EUB0001619a CDKL3. The note with it: at 1 µM.
In assay [6] the target is T2, SNF-related serine/threonine-protein kinase (Homo sapiens) (UniProt Q9NRH2).
T2 sequence (whole entry): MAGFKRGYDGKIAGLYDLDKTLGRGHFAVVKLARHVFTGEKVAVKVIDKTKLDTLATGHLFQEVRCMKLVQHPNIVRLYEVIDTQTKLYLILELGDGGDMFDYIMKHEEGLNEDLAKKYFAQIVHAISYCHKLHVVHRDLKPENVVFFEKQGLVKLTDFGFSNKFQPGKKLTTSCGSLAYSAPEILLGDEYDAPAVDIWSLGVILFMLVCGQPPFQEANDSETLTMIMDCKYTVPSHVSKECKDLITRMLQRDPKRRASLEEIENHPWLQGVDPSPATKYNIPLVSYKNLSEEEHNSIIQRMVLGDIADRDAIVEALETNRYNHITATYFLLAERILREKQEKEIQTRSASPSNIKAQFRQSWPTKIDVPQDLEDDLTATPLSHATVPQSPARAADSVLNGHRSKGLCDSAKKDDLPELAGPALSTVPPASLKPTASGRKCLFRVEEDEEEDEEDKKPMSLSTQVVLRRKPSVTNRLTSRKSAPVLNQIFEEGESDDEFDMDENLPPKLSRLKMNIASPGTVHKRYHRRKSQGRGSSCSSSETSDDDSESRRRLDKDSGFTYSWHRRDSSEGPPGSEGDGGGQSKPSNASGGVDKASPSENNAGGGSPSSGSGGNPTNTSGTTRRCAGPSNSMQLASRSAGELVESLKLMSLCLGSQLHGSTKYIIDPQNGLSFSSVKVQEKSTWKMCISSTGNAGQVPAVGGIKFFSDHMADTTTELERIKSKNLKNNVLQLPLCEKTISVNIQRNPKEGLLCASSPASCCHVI
The assay is described as follows: Selectivity interaction (ActivX KiNativ screen (kinase selectivity in THP-1 cell lysates)) EUB0000639a SNRK. The assay is classed as subcellular. To be noted: lysate, at 1 µM.

The target of assay [7] is T3, Phosphorylase b kinase gamma catalytic chain, liver/testis isoform (Homo sapiens) (UniProt P15735).
T3 sequence (whole entry): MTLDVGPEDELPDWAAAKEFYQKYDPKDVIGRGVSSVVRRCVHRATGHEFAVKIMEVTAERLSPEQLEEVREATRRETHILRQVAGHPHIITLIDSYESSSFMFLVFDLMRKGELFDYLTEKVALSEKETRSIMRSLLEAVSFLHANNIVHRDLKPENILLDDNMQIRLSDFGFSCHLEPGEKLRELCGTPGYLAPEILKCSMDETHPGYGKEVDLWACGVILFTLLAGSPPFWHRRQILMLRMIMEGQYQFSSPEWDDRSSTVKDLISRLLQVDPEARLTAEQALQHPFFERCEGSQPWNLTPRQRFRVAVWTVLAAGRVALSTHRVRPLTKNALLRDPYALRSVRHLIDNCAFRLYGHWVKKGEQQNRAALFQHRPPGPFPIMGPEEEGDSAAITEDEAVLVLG
The note with it: at 10 µM.

The target of assay [8] is T4, Serine/threonine-protein kinase Nek11 (Homo sapiens) (UniProt Q8NG66).
T4 sequence (whole entry): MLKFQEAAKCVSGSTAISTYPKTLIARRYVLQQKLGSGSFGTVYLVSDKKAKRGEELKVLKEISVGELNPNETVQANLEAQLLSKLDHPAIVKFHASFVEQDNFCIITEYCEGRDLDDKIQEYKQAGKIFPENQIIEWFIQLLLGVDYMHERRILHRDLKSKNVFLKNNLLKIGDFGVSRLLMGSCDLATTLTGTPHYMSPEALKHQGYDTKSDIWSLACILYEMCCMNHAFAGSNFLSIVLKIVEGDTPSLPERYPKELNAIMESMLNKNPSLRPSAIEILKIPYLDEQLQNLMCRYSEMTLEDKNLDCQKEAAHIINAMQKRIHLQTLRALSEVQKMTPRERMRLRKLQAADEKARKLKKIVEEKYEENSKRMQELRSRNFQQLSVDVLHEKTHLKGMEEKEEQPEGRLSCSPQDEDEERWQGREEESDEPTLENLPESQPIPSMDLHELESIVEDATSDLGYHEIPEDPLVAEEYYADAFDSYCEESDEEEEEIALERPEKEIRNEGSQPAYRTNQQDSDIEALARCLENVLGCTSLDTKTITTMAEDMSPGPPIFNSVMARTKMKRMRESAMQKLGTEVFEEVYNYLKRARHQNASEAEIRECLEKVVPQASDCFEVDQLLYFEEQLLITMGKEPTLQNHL
Kind of assay: Selectivity interaction (KinomeScan (DiscoverX)) EUB0001049a NEK11. The note with it: at 1 µM.

The target of assay [9] is SRSF protein kinase 3 (Homo sapiens) (UniProt Q9UPE1). Kind of assay: Selectivity interaction (KinomeScan (DiscoverX)) EUB0000695a SRPK3. To be noted: at 100 nM.

Consider nine molecules from ChEMBL document CHEMBL5465560, “Selectivity Literature for EUbOPEN Chemogenomic Library” (2024).

Chain of Cyclin-dependent kinase-like 3 (Homo sapiens) (Q8IVW4 whole entry, looked up): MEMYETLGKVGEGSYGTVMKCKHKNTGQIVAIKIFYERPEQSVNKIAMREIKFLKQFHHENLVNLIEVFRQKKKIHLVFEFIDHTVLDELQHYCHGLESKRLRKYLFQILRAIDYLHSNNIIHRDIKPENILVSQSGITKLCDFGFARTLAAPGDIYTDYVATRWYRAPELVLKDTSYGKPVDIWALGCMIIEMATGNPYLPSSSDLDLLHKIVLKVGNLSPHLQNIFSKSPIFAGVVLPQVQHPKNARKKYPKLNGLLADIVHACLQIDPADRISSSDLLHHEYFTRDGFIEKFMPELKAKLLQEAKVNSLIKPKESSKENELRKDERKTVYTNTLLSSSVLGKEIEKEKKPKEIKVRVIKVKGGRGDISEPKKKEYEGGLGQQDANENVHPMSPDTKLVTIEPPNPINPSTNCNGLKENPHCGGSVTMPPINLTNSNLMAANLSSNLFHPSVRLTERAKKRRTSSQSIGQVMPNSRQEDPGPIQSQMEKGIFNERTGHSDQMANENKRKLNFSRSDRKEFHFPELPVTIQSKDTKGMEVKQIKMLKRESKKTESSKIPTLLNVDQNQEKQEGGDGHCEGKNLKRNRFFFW
Chain of Interferon-induced, double-stranded RNA-activated protein kinase (Homo sapiens) (P19525 whole entry): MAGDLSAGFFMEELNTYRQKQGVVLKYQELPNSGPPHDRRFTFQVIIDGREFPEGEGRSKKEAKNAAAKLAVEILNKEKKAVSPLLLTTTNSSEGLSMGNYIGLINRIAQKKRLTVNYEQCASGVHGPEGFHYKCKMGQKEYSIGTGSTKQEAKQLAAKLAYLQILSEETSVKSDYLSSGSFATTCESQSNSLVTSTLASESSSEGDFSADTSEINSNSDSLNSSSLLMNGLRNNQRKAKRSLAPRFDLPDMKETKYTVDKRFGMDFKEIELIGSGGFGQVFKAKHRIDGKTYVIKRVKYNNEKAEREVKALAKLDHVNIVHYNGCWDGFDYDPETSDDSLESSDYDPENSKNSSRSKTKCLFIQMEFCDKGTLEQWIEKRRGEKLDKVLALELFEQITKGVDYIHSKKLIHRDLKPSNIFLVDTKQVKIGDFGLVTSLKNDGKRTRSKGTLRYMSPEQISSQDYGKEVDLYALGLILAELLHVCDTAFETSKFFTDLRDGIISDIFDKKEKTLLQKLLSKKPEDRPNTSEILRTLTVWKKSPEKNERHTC
Chain of Receptor-type tyrosine-protein kinase FLT3 (Homo sapiens) (P36888 whole entry): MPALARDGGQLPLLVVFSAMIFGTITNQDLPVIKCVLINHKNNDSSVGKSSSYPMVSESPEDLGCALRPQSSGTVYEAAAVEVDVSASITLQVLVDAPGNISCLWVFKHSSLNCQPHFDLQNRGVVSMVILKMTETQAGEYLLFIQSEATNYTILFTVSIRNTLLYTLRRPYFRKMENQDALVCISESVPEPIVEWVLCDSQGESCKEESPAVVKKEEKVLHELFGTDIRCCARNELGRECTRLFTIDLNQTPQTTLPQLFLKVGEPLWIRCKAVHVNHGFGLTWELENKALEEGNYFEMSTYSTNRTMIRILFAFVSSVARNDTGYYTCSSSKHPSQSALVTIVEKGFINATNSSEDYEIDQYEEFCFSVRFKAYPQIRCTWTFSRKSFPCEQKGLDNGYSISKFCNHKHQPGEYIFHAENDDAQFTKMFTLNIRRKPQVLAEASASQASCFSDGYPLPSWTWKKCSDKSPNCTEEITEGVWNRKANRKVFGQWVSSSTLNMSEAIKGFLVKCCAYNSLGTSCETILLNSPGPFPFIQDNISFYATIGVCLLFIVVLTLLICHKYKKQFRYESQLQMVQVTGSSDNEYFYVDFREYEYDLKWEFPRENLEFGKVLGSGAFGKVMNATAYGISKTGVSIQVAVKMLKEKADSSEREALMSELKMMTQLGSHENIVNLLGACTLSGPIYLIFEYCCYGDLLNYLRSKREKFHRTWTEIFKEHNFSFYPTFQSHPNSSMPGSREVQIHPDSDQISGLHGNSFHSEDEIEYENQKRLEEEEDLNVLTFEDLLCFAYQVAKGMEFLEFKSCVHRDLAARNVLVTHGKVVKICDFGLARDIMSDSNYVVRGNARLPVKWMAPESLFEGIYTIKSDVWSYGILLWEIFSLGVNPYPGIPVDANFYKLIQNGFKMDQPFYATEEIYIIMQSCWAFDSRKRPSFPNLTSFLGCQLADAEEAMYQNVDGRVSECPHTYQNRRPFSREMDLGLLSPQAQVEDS
Chain of SRSF protein kinase 3 (Homo sapiens) (Q9UPE1 whole entry): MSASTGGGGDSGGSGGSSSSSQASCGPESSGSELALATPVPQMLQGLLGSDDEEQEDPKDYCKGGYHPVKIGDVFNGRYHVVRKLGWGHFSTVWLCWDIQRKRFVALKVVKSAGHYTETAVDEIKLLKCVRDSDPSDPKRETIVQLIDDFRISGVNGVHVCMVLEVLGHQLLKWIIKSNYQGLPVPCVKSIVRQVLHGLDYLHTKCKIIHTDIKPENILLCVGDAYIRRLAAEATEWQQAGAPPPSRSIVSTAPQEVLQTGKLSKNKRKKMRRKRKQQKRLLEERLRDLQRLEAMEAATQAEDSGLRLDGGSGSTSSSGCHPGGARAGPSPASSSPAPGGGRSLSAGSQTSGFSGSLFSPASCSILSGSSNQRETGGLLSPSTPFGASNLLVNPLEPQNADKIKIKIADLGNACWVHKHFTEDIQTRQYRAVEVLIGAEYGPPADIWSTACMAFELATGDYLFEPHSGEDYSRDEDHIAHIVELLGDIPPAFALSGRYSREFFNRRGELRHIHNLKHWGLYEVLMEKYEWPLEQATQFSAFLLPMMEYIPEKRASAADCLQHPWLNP
Chain of Mitogen-activated protein kinase kinase kinase kinase 5 (Homo sapiens) (Q9Y4K4 whole entry, looked up): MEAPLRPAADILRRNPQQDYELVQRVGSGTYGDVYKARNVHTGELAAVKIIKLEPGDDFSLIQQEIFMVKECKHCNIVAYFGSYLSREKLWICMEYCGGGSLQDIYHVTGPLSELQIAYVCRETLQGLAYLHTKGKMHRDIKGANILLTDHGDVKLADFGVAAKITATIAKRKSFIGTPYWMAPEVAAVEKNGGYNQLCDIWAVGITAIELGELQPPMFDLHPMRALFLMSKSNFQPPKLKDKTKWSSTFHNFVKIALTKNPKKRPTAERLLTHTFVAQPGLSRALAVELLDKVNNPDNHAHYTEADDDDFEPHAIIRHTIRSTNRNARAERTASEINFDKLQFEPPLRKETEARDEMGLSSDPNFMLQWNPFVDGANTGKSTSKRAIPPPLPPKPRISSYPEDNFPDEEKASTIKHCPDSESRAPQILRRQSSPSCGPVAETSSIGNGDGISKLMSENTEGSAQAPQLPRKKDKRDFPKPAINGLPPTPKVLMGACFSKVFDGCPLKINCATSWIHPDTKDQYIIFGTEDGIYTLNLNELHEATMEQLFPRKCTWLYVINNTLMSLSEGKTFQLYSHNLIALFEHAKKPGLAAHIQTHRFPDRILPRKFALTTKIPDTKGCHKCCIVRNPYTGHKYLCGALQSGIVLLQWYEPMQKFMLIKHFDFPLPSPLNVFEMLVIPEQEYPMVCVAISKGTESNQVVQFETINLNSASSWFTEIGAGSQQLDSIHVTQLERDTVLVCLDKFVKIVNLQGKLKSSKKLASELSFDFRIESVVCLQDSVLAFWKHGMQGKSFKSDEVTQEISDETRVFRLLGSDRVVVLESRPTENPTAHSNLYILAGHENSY

`C=CC(=O)Nc1ccc(C(=O)Nc2[nH]nc3c2CN(C(=O)N[C@H](CN(C)C)c2ccccc2)C3(C)C)cc1`: the % of engagement in [1] was 1.1%.
`CNC(=O)Nc1ccc(-c2nc(N3CC4CCC(C3)O4)c3cnn(C4CCC5(CC4)OCCO5)c3n2)cc1` returned a % of inhibition in [2] of 8%.
For `Cc1cc([C@@H](C)Nc2ccccc2C(=O)O)c2nc(N3CCOCC3)cc(=O)n2c1` [AZD-6482], in assay [3], the % of control stood at 13%.
Consider `Nc1cnc(N2CCc3cc(S(=O)(=O)Nc4c(F)cc(Cl)cc4F)cc(N4CCCC4=O)c32)nc1` [TP-020n], for which the % of control in [4] came to 41%.
For `N#Cc1cccc(-c2c[nH]c3ncnc(N4CCOCC4)c23)c1`, the % of control in assay [5] came out at 100%.
For the molecule `CC[C@@H]1[C@H](F)C(=O)N[C@@H]1COc1nccc2cc(C(N)=O)c(OC)cc12` [ZIMLOVISERTIB], the % of inhibition in assay [6] was 2.6%.
Molecule `CCN(CC)CCCCNc1ncc2cc(-c3cc(OC)cc(OC)c3)c(NC(=O)NC(C)(C)C)nc2n1` displayed a % of control in assay [7] of 100%.
Consider `COc1cc(Nc2nc(C)cc(-c3cnn4nc(OC)ccc34)n2)cc(C(F)(F)F)c1`, for which the % of control in assay [8] worked out at 99%.
`Cc1cc(F)c(C(=O)Nc2cccc(-c3nncn3C(C)C)n2)cc1-n1cnc(C2CC2)c1` displayed a % of control in assay [9] of 100%.
